Results as given in PubChem BioAssay (NCI).
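GI50 is the concentration that inhibits growth by half. The concentration for full growth arrest is given as TGI.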

Legend:
Experiment in all cases: inhibition of tumour cell growth, NCI panel, 384-well format
T-47D breast = test system: T-47D breast
SF-295 CNS = test system: SF-295 CNS
RXF 393 renal = test system: RXF 393 renal
K-562 leukemia = test system: K-562 leukemia
ACHN renal = test system: ACHN renal
U251 glioblastoma = test system: U251 glioblastoma
MOLT-4 leukemia = test system: MOLT-4 leukemia
HT29 colon = test system: HT29 colon
SK-OV-3 ovarian = test system: SK-OV-3 ovarian
SK-MEL-5 melanoma = test system: SK-MEL-5 melanoma
MDA-MB-231 breast = test system: MDA-MB-231 breast
MDA-MB-468 breast = test system: MDA-MB-468 breast
SK-MEL-2 melanoma = test system: SK-MEL-2 melanoma
HL-60(TB) leukemia = test system: HL-60(TB) leukemia
EKVX NSCLC = test system: EKVX NSCLC
MALME-3M melanoma = test system: MALME-3M melanoma
OVCAR-5 ovarian = test system: OVCAR-5 ovarian
HOP-92 NSCLC = test system: HOP-92 NSCLC
SNB-19 CNS = test system: SNB-19 CNS
SNB-75 CNS = test system: SNB-75 CNS
NCI-H226 lung = test system: NCI-H226 lung
MCF7 breast = test system: MCF7 breast
HOP-62 NSCLC = test system: HOP-62 NSCLC
A549 NSCLC = test system: A549 NSCLC
SF-268 CNS = test system: SF-268 CNS
UO-31 renal = test system: UO-31 renal
SF-539 CNS = test system: SF-539 CNS
NCI-H522 lung = test system: NCI-H522 lung
HCT-15 colon = test system: HCT-15 colon
HS 578T breast = test system: HS 578T breast
SR leukemia = test system: SR leukemia
SK-MEL-28 melanoma = test system: SK-MEL-28 melanoma
CAKI-1 renal = test system: CAKI-1 renal
UACC-62 melanoma = test system: UACC-62 melanoma
OVCAR-4 ovarian = test system: OVCAR-4 ovarian
KM12 colon = test system: KM12 colon
MDA-MB-435 melanoma = test system: MDA-MB-435 melanoma
COLO 205 colon = test system: COLO 205 colon
A498 renal = test system: A498 renal
BT-549 breast = test system: BT-549 breast
PC-3 prostate = test system: PC-3 prostate
NCI-H322M lung = test system: NCI-H322M lung
TK-10 renal = test system: TK-10 renal
M14 melanoma = test system: M14 melanoma
SW-620 colon = test system: SW-620 colon
IGROV1 ovarian = test system: IGROV1 ovarian
NCI-H460 NSCLC = test system: NCI-H460 NSCLC
OVCAR-8 ovarian = test system: OVCAR-8 ovarian
UACC-257 melanoma = test system: UACC-257 melanoma
HCT-116 colon = test system: HCT-116 colon
OVCAR-3 ovarian = test system: OVCAR-3 ovarian
786-0 renal = test system: 786-0 renal
SN12C renal = test system: SN12C renal

C=CCNC1=C2C[C@@H](C)C[C@H](OC)[C@H](O)[C@@H](C)/C=C(\C)[C@H](OC(N)=O)[C@@H](OC)/C=C\C=C(/C)C(=O)NC(=CC1=O)C2=O
GI50 (T-47D breast): 838 nM
TGI (T-47D breast): 6160 nM
GI50 (SF-295 CNS): 21.9 nM
TGI (SF-295 CNS): 121 nM
GI50 (RXF 393 renal): 16.5 nM
TGI (RXF 393 renal): 65.6 nM
GI50 (K-562 leukemia): 27.6 nM
TGI (K-562 leukemia): 10300 nM
GI50 (ACHN renal): 83.2 nM
TGI (ACHN renal): 12000 nM
GI50 (U251 glioblastoma): 26.2 nM
TGI (U251 glioblastoma): 167 nM
GI50 (MOLT-4 leukemia): 145 nM
TGI (MOLT-4 leukemia): 336 nM
GI50 (HT29 colon): < 10 nM
TGI (HT29 colon): 10700 nM
GI50 (SK-OV-3 ovarian): 14.8 nM
TGI (SK-OV-3 ovarian): 99.5 nM
GI50 (SK-MEL-5 melanoma): < 10 nM
TGI (SK-MEL-5 melanoma): 2900 nM
GI50 (MDA-MB-231 breast): 422 nM
TGI (MDA-MB-231 breast): 2240 nM
GI50 (MDA-MB-468 breast): 180 nM
TGI (MDA-MB-468 breast): 733 nM
GI50 (SK-MEL-2 melanoma): < 10 nM
TGI (SK-MEL-2 melanoma): 112 nM
GI50 (HL-60(TB) leukemia): 31 nM
TGI (HL-60(TB) leukemia): 169 nM
GI50 (EKVX NSCLC): 44.8 nM
TGI (EKVX NSCLC): 419 nM
GI50 (MALME-3M melanoma): < 10 nM
TGI (MALME-3M melanoma): 282 nM
GI50 (OVCAR-5 ovarian): 59.2 nM
TGI (OVCAR-5 ovarian): 12600 nM
GI50 (HOP-92 NSCLC): 716 nM
TGI (HOP-92 NSCLC): 3140 nM
GI50 (SNB-19 CNS): 50.8 nM
TGI (SNB-19 CNS): 10800 nM
GI50 (SNB-75 CNS): 13.8 nM
TGI (SNB-75 CNS): 73.8 nM
GI50 (NCI-H226 lung): 33.3 nM
TGI (NCI-H226 lung): 440 nM
GI50 (MCF7 breast): < 10 nM
TGI (MCF7 breast): 41.6 nM
GI50 (HOP-62 NSCLC): 20.4 nM
TGI (HOP-62 NSCLC): 1750 nM
GI50 (A549 NSCLC): < 10 nM
TGI (A549 NSCLC): 10500 nM
GI50 (SF-268 CNS): 27.4 nM
TGI (SF-268 CNS): 11100 nM
GI50 (UO-31 renal): 340 nM
TGI (UO-31 renal): 12000 nM
GI50 (SF-539 CNS): 13.9 nM
TGI (SF-539 CNS): 36.1 nM
GI50 (NCI-H522 lung): 13.6 nM
TGI (NCI-H522 lung): 47.4 nM
GI50 (HCT-15 colon): 51.9 nM
TGI (HCT-15 colon): 5340 nM
GI50 (HS 578T breast): < 10 nM
TGI (HS 578T breast): 20.2 nM
GI50 (SR leukemia): 11 nM
TGI (SR leukemia): 25.3 nM
GI50 (SK-MEL-28 melanoma): 29.5 nM
TGI (SK-MEL-28 melanoma): 15200 nM
GI50 (CAKI-1 renal): 140 nM
TGI (CAKI-1 renal): 14700 nM
GI50 (UACC-62 melanoma): 11.8 nM
TGI (UACC-62 melanoma): 53.5 nM
GI50 (OVCAR-4 ovarian): 158 nM
TGI (OVCAR-4 ovarian): 12000 nM
GI50 (KM12 colon): < 10 nM
TGI (KM12 colon): 11.5 nM
GI50 (MDA-MB-435 melanoma): 34 nM
TGI (MDA-MB-435 melanoma): 13700 nM
GI50 (COLO 205 colon): < 10 nM
TGI (COLO 205 colon): 11 nM
GI50 (A498 renal): 34.5 nM
TGI (A498 renal): 12400 nM
GI50 (BT-549 breast): < 10 nM
TGI (BT-549 breast): 31.2 nM
GI50 (PC-3 prostate): 22.9 nM
TGI (PC-3 prostate): 124 nM
GI50 (NCI-H322M lung): < 10 nM
TGI (NCI-H322M lung): 10100 nM
GI50 (TK-10 renal): 35.7 nM
TGI (TK-10 renal): 13500 nM
GI50 (M14 melanoma): < 10 nM
TGI (M14 melanoma): 11400 nM
GI50 (SW-620 colon): 16 nM
TGI (SW-620 colon): 10900 nM
GI50 (IGROV1 ovarian): 27.1 nM
TGI (IGROV1 ovarian): 281 nM
GI50 (NCI-H460 NSCLC): < 10 nM
TGI (NCI-H460 NSCLC): 1610 nM
GI50 (OVCAR-8 ovarian): 42.2 nM
TGI (OVCAR-8 ovarian): 205 nM
GI50 (UACC-257 melanoma): 27.4 nM
TGI (UACC-257 melanoma): 1350 nM
GI50 (HCT-116 colon): 36.5 nM
TGI (HCT-116 colon): 8320 nM
GI50 (OVCAR-3 ovarian): 37.1 nM
TGI (OVCAR-3 ovarian): 447 nM
GI50 ([…]-0 renal): 65.7 nM
TGI (786-0 renal): 271 nM
GI50 (SN12C renal): 17.2 nM
TGI (SN12C renal): 255 nM
